{"source": "ChEMBL document CHEMBL5126499", "about": "“Small molecule therapeutics for tauopathy in Alzheimer's disease: Walking on the path of most resistance” (Eur J Med Chem, 2021)", "key": {"[1]": {"test": "Reduction of tau protein level in human HeLa C3 cells transfected with human 4R0N tau at 30 uM incubated for 24 hrs by Western blot analysis relative to control", "assay_type": "functional", "parameters": "scale not given: the % may be the effect or the level left"}, "[2]": {"species": "Homo sapiens", "test": "Inhibition of human HSP70 ATPase activity at 10 uM incubated for 3 hrs by malachite green reagent based HTS analysis relative to control"}, "[3]": {"test": "Inhibition of human HSP70 ATPase activity at incubated for 3 hrs by malachite green reagent based HTS analysis"}, "[4]": {"test": "Cmax in mouse brain at 10 mg/kg, ip", "assay_type": "ADME, organism-based", "parameters": "dose 10 mg/kg, route ip", "conditions": "in vivo"}, "[5]": {"test": "Tmax in mouse brain at 10 mg/kg, ip", "assay_type": "ADME, organism-based"}, "[6]": {"test": "Inhibition of HSP70 in human HeLa C3 cells overexpressing tau protein assessed as reduction in tau protein level measured after 24 hrs by Western blot analysis", "assay_type": "cell-based", "conditions": "HeLa C3, 24 h"}, "[7]": {"system": "SK-N-BE(2)-M17", "test": "Inhibition of HSP70 in human SK-N-BE(2)-M17 cells overexpressing tau protein assessed as reduction in tau protein level at 0.025 to 9 uM measured after 24 hrs by Western blot analysis relative to control", "assay_type": "cell-based", "conditions": "dose 0.025-9 µM"}, "[8]": {"system": "HeLa C3", "test": "Inhibition of HSP70 in human HeLa C3 cells overexpressing tau protein assessed as reduction in tau protein level at 0.025 to 9 uM measured after 24 hrs by Western blot analysis relative to control", "assay_type": "cell-based", "conditions": "dose 0.025-9 µM"}, "[9]": {"test": "Inhibition of HSP70 in human SK-N-BE(2)-M17 cells overexpressing tau protein assessed as reduction in tau protein level measured after 24 hrs by Western blot analysis", "assay_type": "cell-based", "conditions": "SK-N-BE(2)-M17, 24 h"}, "[10]": {"test": "Induction of SirT2 production in mouse N2a cells transfected with ApoE4 assessed as increase in SirT2 levels by sandwich ELISA", "assay_type": "functional, cell-based"}, "[11]": {"system": "Drosophila", "test": "Inhibition of tau protein accumulation in Drosophila larvae eye assessed as reduction in tau protein level at 0.75 mg/ml dripped every other day by immunohistochemistry", "assay_type": "functional"}}, "note": "pEC50, pIC50: −log10 of the molar value."}
{"smiles": "CCn1c(=O)/c(=C2\\Sc3cc(C(F)(F)F)ccc3N2C)s/c1=C\\c1ccccn1", "values": [{"measurement": "Activity", "setting": "[1]", "result": 50, "unit": "%"}]}
{"smiles": "CN(C)c1ccc2nc3ccc(=[N+](C)C)cc-3sc2c1", "values": [{"measurement": "inhibition", "setting": "[2]", "result": "> 80", "unit": "%"}]}
{"smiles": "O=c1c(O)c(-c2cc(O)c(O)c(O)c2)oc2cc(O)cc(O)c12", "note": "[MYRICETIN]", "values": [{"measurement": "inhibition", "setting": "[2]", "result": "> 80", "unit": "%"}, {"measurement": "pIC50", "setting": "[3]", "result": 4.92}]}
{"smiles": "CNc1ccc2nc3ccc(N)cc3[s+]c2c1", "note": "[AZURE C]", "values": [{"measurement": "inhibition", "setting": "[2]", "result": "> 80", "unit": "%"}, {"measurement": "pIC50", "setting": "[3]", "result": 4.96}]}
{"smiles": "CCNC1=NC(c2ccc(F)cc2)NC(=O)N1", "note": "(stereo unspecified)", "values": [{"measurement": "Cmax", "setting": "[4]", "result": 1.5, "unit": "ng/mg"}, {"measurement": "Tmax", "setting": "[5]", "result": 30, "unit": "min"}]}
{"smiles": "CCn1c(=O)/c(=C2\\Sc3ccccc3N2C)s/c1=C\\c1cccc[n+]1C", "values": [{"measurement": "pEC50", "setting": "[6]", "result": 6.05}, {"measurement": "inhibition", "setting": "[7]", "result": 75, "unit": "%"}, {"measurement": "inhibition", "setting": "[8]", "result": 75, "unit": "%"}, {"measurement": "pEC50", "setting": "[9]", "result": 5.82}]}
{"smiles": "CC(N)C(=O)OC(C)(C)Cc1ccc(Cl)cc1", "note": "(stereo unspecified) [ALAPROCLATE]", "values": [{"measurement": "pEC50", "setting": "[10]", "result": 5.70}]}
{"smiles": "CN(C)c1ccc2nc3ccc(N(C)C)cc3[s+]c2c1", "note": "[METHYLENE BLUE ANHYDROUS]", "values": [{"measurement": "pIC50", "setting": "[3]", "result": 4.08}]}
{"smiles": "CCn1c(=O)/c(=C2\\Sc3ccccc3N2C)s/c1=C\\c1cccc[n+]1CC", "values": [{"measurement": "pEC50", "setting": "[6]", "result": 5.10}]}
{"smiles": "O=C1C(Cl)=C(N[C@@H](Cc2c[nH]c3ccccc23)C(=O)O)C(=O)c2ccccc21", "values": [{"measurement": "inhibition at 750 µg/mL", "setting": "[11]", "result": 70, "unit": "%"}]}
